This note sets out measurements from article PMC7926923, “Identification of Active Site Residues of the Siderophore Synthesis Enzyme PvdF and Evidence for Interaction of PvdF with a Substrate-Providing Enzyme” (International Journal of Molecular Sciences, 2021).

Assay [1] addresses T1, PvdF (Pseudomonas aeruginosa, UniProt Q9I184).
T1 construct: recombinant from E. coli BL21(DE3), His6 tag kept at N-terminus (His6PvdF, pET-DUET1; also all variants) or C-terminus (PvdFHis6, pET21a); IMAC and SEC; monomer
The experiment in a line: direct injection mass spectrometry of fOHOrn product. The format is biochemical. The following applies: 25 uM PvdF, 1 mM OHOrn, 1.5 mM fTHF, 10 mM HEPES pH 8.0, 30 C, 3 h.

Assay [2] addresses T1, PvdF. As to the kind of experiment: differential scanning fluorimetry, SYPRO Orange. The following applies: 10 uM protein, 1.5 mM fTHF, 10 mM HEPES pH 8.0; site not determined; also co-substrate in the activity assay. The assay is classed as binding. (In general: In DSF a fluorescence change marks the thermal transition of the protein.)

T1 sequence (Q9I184 entry or part of it): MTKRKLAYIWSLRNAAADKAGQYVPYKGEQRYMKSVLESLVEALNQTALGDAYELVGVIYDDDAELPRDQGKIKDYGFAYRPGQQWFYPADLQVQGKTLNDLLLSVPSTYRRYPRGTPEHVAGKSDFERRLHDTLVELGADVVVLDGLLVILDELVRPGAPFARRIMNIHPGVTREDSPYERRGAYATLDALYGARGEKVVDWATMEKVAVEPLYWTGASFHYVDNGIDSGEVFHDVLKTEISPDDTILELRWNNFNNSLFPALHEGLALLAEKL

For `N[C@@H](CCCNO)C(=O)O` [L-OHOrn], the “direct injection mass spectrometry of fOHOrn product” value on PvdF [1] is recorded as “able to convert OHOrn to fOHOrn with fTHF as the co-substrate”.
As for `Nc1nc2c(c(=O)[nH]1)N[C@@H](CN(C=O)c1ccc(C(=O)N[C@@H](CCC(=O)O)C(=O)O)cc1)CN2` [N^10-formyltetrahydrofolate], on PvdF [2], the thermal shift result is given as “addition of fTHF resulted in a significant change in fluorescence of wild-type PvdF”.
